Measurements as given in patent US8686044B2, “Amide derivative, pest control agent containing the amide derivative, and use of the amide derivative” (Mitsui Chemicals Agro, Inc., priority 2008, dated 2014).

Legend:
Type in all cases: in vivo
[1] = tested on: Adoxophyes honmai; assay: Pesticidal test against Adoxophyes honmai (artificial feed dip); details: 144 h, 2-stage larvae, examined after 6 days, 25° C., read-out: pesticidal rate; for pest or weed control at 1 ppm: concentration 1 ppm; for pest or weed control at 10 ppm: concentration 10 ppm
Method in brief: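 Thin artificial feed slices dipped 30 s in test solution at a predetermined concentration, air-dried, then offered to 2nd-stage larvae. Kept at 25° C; live and dead larvae counted after 6 days. Five larvae per group, two replicates.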

[2] = tested on: Musca domestica; assay: Pesticidal test against Musca domestica (petri dish dry film); details: 24 h, concentration 100 ppm, female adults, examined after 1 day, 25° C., read-out: pesticidal rate
Method in brief: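 Dry film from 1 ml acetone solution of compound at a predetermined concentration, air-dried in a 9 cm petri dish; female adult flies released and dish capped. Held at 25° C; living and dead counted after 1 day. Five insects per group, two replicates.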

[3] = tested on: Helicoverpa armigera; assay: Pesticidal test against Helicoverpa armigera (cabbage leaf disk dip); details: foliar, 72 h, concentration 1 ppm, 2-stage larvae, examined after 3 days, 25° C., read-out: pesticidal rate
Method in brief: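 Cabbage leaf disks were dipped for 30 s in test solution at a set concentration and air-dried. Second-instar larvae were placed one per hole and held at 25 °C, with live and dead counts taken after 3 days. Five larvae per group were tested in two replicates.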

[4] = tested on: Laodelphax striatellus; assay: Pesticidal test against Laodelphax striatellus (rice seedling spray); details: 144 h, concentration 100 ppm, 3-stage larvae, examined after 6 days, 25° C., read-out: pesticidal rate
Method in brief: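 Rice seedlings sprayed with 2.5 ml acetone solution of compound at a predetermined concentration, air-dried, then infested with third-stage Laodelphax striatellus larvae in capped water-containing tubes at 25 °C. Living and dead insects counted after 6 days; ten larvae per group, two replicates.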

[5] = tested on: Spodoptera litura; assay: Pesticidal test against Spodoptera litura (cabbage leaf dip); details: foliar, 144 h, concentration 1 ppm, 2-stage larvae, examined after 6 days, 25° C., read-out: pesticidal rate
Method in brief: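 Cabbage leaf pieces dipped 30 seconds in compound solution at a predetermined concentration and air-dried, then offered to second-stage larvae, five per group in two replicates. Held at 25° C. Living and dead larvae counted after 6 days.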

[6] = tested on: Plutella xylostella; assay: Pesticidal test against Plutella xylostella (cabbage leaf dip); details: foliar, 144 h, concentration 1 ppm, 2-stage larvae, examined after 6 days, 25° C., read-out: pesticidal rate
Method in brief: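 Cabbage leaf pieces dipped 30 s in test solution at a predetermined concentration, air-dried, then offered to 2nd-instar larvae, five per group in duplicate. Held at 25° C; living and dead larvae counted after 6 days.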

[7] = tested on: Blattella germanica; assay: Pesticidal test against Blattella germanica (petri dish dry film); details: 24 h, concentration 100 ppm, female adults, examined after 1 day, 25° C., read-out: pesticidal rate
Description: Pesticidal Test against Blattella germanica
1 ml of an acetone solution in which a test compound had been prepared at a predetermined concentration was added dropwise to a petri dish having a diameter of 9 cm, and air-dried, and then the female adults of Blattella germanica were released and the petri dish was capped. They were left to stand in a thermostatic chamber at 25° C., and the numbers of the living pests and the dead pests were examined after 1 day. The test was carried out with five larvae per group in two replicates.

[8] = tested on: Choristoneura magnanima; assay: Pesticidal test against Choristoneura magnanima (artificial feed dip); details: 144 h, 2-stage larvae, examined after 6 days, 25° C., read-out: pesticidal rate; for pest or weed control at 1 ppm: concentration 1 ppm
Method in brief: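 Thin artificial feed slices dipped 30 s in compound solution at a set concentration, air-dried, then offered to 2nd-stage larvae held at 25° C. Living and dead larvae counted after 6 days; five larvae per group, two replicates.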

O=C(Nc1c(Br)cc(C(F)(C(F)(F)F)C(F)(F)C(F)(F)F)cc1C(F)(F)F)c1cccc(NC(=O)c2ccccc2F)c1 (stereo not shown) [6-347]
≥ 70%: pest or weed control at 1 ppm [1] | pest or weed control at 100 ppm [2] | pest or weed control at 1 ppm [3] | pest or weed control at 100 ppm [4] | pest or weed control at 1 ppm [5] | pest or weed control at 1 ppm [6] | pest or weed control at 100 ppm [7]

N#Cc1ccc(C(=O)Nc2cccc(C(=O)Nc3c(Br)cc(C(F)(C(F)(F)F)C(F)(F)C(F)(F)F)cc3C(F)(F)F)c2)cc1 (stereo not shown) [6-367]
≥ 70%: pest or weed control at 10 ppm [1] | pest or weed control at 1 ppm [3] | pest or weed control at 1 ppm [5] | pest or weed control at 1 ppm [8] | pest or weed control at 1 ppm [6] | pest or weed control at 100 ppm [7]

O=C(Nc1c(Br)cc(C(F)(C(F)(F)F)C(F)(F)C(F)(F)F)cc1C(F)(F)F)c1cccc(NC(=O)c2cccnc2Cl)c1 (stereo not shown) [6-382]
≥ 70%: pest or weed control at 1 ppm [1] | pest or weed control at 100 ppm [2] | pest or weed control at 1 ppm [3] | pest or weed control at 100 ppm [4] | pest or weed control at 1 ppm [5] | pest or weed control at 10 ppm ([8]; concentration 10 ppm) | pest or weed control at 1 ppm [6] | pest or weed control at 100 ppm [7]

O=C(Nc1cccc(C(=O)Nc2c(Br)cc(C(F)(C(F)(F)F)C(F)(F)C(F)(F)F)cc2C(F)(F)F)c1)c1ccc(Cl)nc1 (stereo not shown) [6-389]
≥ 70%: pest or weed control at 10 ppm [1] | pest or weed control at 100 ppm [2] | pest or weed control at 1 ppm [3] | pest or weed control at 1 ppm [5] | pest or weed control at 1 ppm [6] | pest or weed control at 100 ppm [7]

O=C(Nc1cccc(C(=O)Nc2c(I)cc(C(F)(C(F)(F)F)C(F)(F)F)cc2C(F)(F)F)c1)c1cccc(F)c1 [6-426]
≥ 70%: pest or weed control at 10 ppm [1] | pest or weed control at 100 ppm [2] | pest or weed control at 1 ppm [3] | pest or weed control at 1 ppm [5] | pest or weed control at 1 ppm [8] | pest or weed control at 1 ppm [6] | pest or weed control at 100 ppm [7]

O=C(Nc1cccc(C(=O)Nc2c(I)cc(C(F)(C(F)(F)F)C(F)(F)F)cc2C(F)(F)F)c1)c1ccc(F)cc1 [6-427]
≥ 70%: pest or weed control at 1 ppm [1] | pest or weed control at 100 ppm [2] | pest or weed control at 1 ppm [3] | pest or weed control at 100 ppm [4] | pest or weed control at 1 ppm [5] | pest or weed control at 1 ppm [8] | pest or weed control at 1 ppm [6] | pest or weed control at 100 ppm [7]

O=C(Nc1c(I)cc(C(F)(C(F)(F)F)C(F)(F)C(F)(F)F)cc1C(F)(F)F)c1cccc(NC(=O)c2ccccc2F)c1 (stereo not shown) [6-503]
≥ 70%: pest or weed control at 1 ppm [1] | pest or weed control at 100 ppm [2] | pest or weed control at 1 ppm [3] | pest or weed control at 100 ppm [4] | pest or weed control at 1 ppm [5] | pest or weed control at 1 ppm [6] | pest or weed control at 100 ppm [7]

O=C(Nc1c(I)cc(C(F)(C(F)(F)F)C(F)(F)C(F)(F)F)cc1C(F)(F)F)c1cccc(NC(=O)c2cccnc2Cl)c1 (stereo not shown) [6-538]
≥ 70%: pest or weed control at 1 ppm [1] | pest or weed control at 100 ppm [2] | pest or weed control at 1 ppm [3] | pest or weed control at 1 ppm [5] | pest or weed control at 1 ppm [6] | pest or weed control at 100 ppm [7]

O=C(Nc1cccc(C(=O)Nc2c(Br)cc(C(F)(C(F)(F)F)C(F)(F)F)cc2Br)c1F)c1cccc(F)c1 [6-1106]
≥ 70%: pest or weed control at 1 ppm [1] | pest or weed control at 1 ppm [3] | pest or weed control at 100 ppm [4] | pest or weed control at 1 ppm [5] | pest or weed control at 1 ppm [8] | pest or weed control at 1 ppm [6] | pest or weed control at 100 ppm [7]

O=C(Nc1cccc(C(=O)Nc2c(Br)cc(C(F)(C(F)(F)F)C(F)(F)F)cc2C(F)(F)F)c1F)c1cccc(F)c1 [6-1576]
≥ 70%: pest or weed control at 1 ppm [1] | pest or weed control at 100 ppm [2] | pest or weed control at 1 ppm [3] | pest or weed control at 100 ppm [4] | pest or weed control at 1 ppm [5] | pest or weed control at 1 ppm [6] | pest or weed control at 100 ppm [7]

N#Cc1cccc(C(=O)Nc2cccc(C(=O)Nc3c(Br)cc(C(F)(C(F)(F)F)C(F)(F)F)cc3C(F)(F)F)c2F)c1 [6-1594]
≥ 70%: pest or weed control at 1 ppm [1] | pest or weed control at 100 ppm [2] | pest or weed control at 1 ppm [3] | pest or weed control at 100 ppm [4] | pest or weed control at 1 ppm [5] | pest or weed control at 1 ppm [6] | pest or weed control at 100 ppm [7]
